Like-named read-outs stand apart in the source and are kept apart here.
What was measured:
Experiment in all cases: Test F pre-/postemergence plant response
Assay type in all cases: in vivo
[1] = tested on: yellow nutsedge (Cyperus esculentus); conditions: Cyperus, pre-emergence, scale 0 to 100, read-out: Plant response rating, Nutsedge, Yellow
Method in brief: (§1)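 Seeds were sown in silt loam soil and sprayed preemergence; separately, plants at the 1- to 4-leaf stage (2 to 18 cm) received postemergence sprays. Test chemicals were in a non-phytotoxic solvent mixture with surfactant. After 14 to 21 days in a greenhouse, injury was visually rated 0 (no effect) to 100 (complete control) against untreated controls.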

[2] = tested on: kochia (Kochia scoparia); conditions: Bassia scoparia, scale 0 to 100, read-out: Plant response rating, Kochia; for pest or weed control at 16 g/ha: 16 g ai/ha; for pest or weed control at 31 g/ha: 31 g ai/ha; for pest or weed control at 125 g/ha: 125 g ai/ha
Method in brief: as §1

[3] = tested on: large (Lg) crabgrass (Digitaria sanguinalis); conditions: Digitaria sanguinalis, pre-emergence, scale 0 to 100, read-out: Plant response rating, Crabgrass, Large
Method in brief: as §1

[4] = tested on: field bindweed (Convolvulus arvensis); conditions: Convolvulus arvensis, scale 0 to 100, read-out: Plant response rating, Field Bindweed
Method in brief: as §1

[5] = tested on: johnsongrass (Sorghum halepense); conditions: Sorghum halepense, pre-emergence, scale 0 to 100, read-out: Plant response rating, Johnsongrass
Method in brief: as §1

[6] = tested on: giant foxtail (Setaria faberii); conditions: Setaria faberi, pre-emergence, scale 0 to 100, read-out: Plant response rating, Foxtail, Giant
Method in brief: as §1

[7] = tested on: ragweed (common ragweed, Ambrosia elatior); conditions: Ambrosia artemisiifolia, scale 0 to 100, read-out: Plant response rating, Ragweed
Method in brief: as §1

[8] = tested on: green foxtail (Setaria viridis); conditions: Setaria viridis, pre-emergence, Preemergence, scale 0 to 100, read-out: Plant response rating, Foxtail, Green
Method in brief: as §1

[9] = tested on: soybean (Glycine max); conditions: Glycine max, scale 0 to 100, read-out: Plant response rating, Soybean
Method in brief: as §1

[10] = tested on: waterhemp (common waterhemp, Amaranthus rudis); conditions: Amaranthus tuberculatus, scale 0 to 100, read-out: Plant response rating, Waterhemp
Method in brief: as §1

[11] = tested on: wild poinsettia (Euphorbia heterophylla); conditions: Euphorbia heterophylla, scale 0 to 100, read-out: Plant response rating, Poinsettia, Wild
Method in brief: as §1

[12] = tested on: morningglory (Ipomoea coccinea); conditions: Ipomoea, pre-emergence, scale 0 to 100, read-out: Plant response rating, Morningglory
Method in brief: as §1

[13] = tested on: barnyardgrass (Echinochloa crus-galli); conditions: Echinochloa crus-galli, scale 0 to 100, read-out: Plant response rating, Barnyardgrass
Method in brief: as §1

[14] = tested on: surinam grass (Brachiaria decumbens); conditions: Urochloa decumbens, pre-emergence, scale 0 to 100, read-out: Plant response rating, Surinam Grass
Method in brief: as §1

[15] = tested on: Italian ryegrass (Lolium multiflorum); conditions: Lolium multiflorum, scale 0 to 100, read-out: Plant response rating, Ryegrass, Italian; for pest or weed control at 16 g/ha: 16 g ai/ha; for pest or weed control at 31 g/ha: 31 g ai/ha; for pest or weed control at 125 g/ha: 125 g ai/ha
Method in brief: as §1

[16] = tested on: dayflower (Virginia (VA) dayflower, Commelina virginica); conditions: Commelina virginica, scale 0 to 100, read-out: Plant response rating, Dayflower, VA
Method in brief: as §1

[17] = tested on: lambsquarters (Chenopodium album); conditions: Chenopodium album, pre-emergence, Preemergence, scale 0 to 100, read-out: Plant response rating, Lambsquarters
Method in brief: as §1

[18] = post-emergence, 62 g ai/ha, Postemergence
[19] = post-emergence, 16 g ai/ha Postemergence
[20] = post-emergence, 31 g ai/ha Postemergence
[21] = post-emergence, 62 g ai/ha Postemergence
[22] = post-emergence, 125 g ai/ha Postemergence
[23] = pre-emergence, 16 g ai/ha Preemergence
[24] = pre-emergence, 31 g ai/ha Preemergence
[25] = pre-emergence, 62 g ai/ha Preemergence
[26] = pre-emergence, 125 g ai/ha Preemergence

Fc1cccc(Oc2ncc(Br)cn2)c1-c1cc(C(F)F)no1 [Compound 145, 5-bromo-2-[2-[3-(difluoromethyl)-5-isoxazolyl]-3-fluorophenoxy]pyrimidine]
65%: pest or weed control at 62 g/ha [4, 25] | pest or weed control at 31 g/ha ([6]; 31 g ai/ha Preemergence) | pest or weed control at 62 g/ha ([7]; pre-emergence, Preemergence) | pest or weed control at 125 g/ha [11, 26] | pest or weed control at 62 g/ha ([11]; pre-emergence, Preemergence)
30%: pest or weed control at 16 g/ha [7, 19] | pest or weed control at 62 g/ha [13, 25]
50%: pest or weed control at 31 g/ha [4, 24] | pest or weed control at 31 g/ha [7, 20] | pest or weed control at 62 g/ha [13, 21] | pest or weed control at 16 g/ha [16, 19]
100%: pest or weed control at 31 g/ha ([2]; post-emergence, Postemergence) | pest or weed control at 125 g/ha ([2]; post-emergence, Postemergence) | pest or weed control at 125 g/ha ([2]; pre-emergence, Preemergence) | pest or weed control at 62 g/ha ([2]; pre-emergence, Preemergence) | pest or weed control at 125 g/ha ([3]; 125 g ai/ha Preemergence) | pest or weed control at 62 g/ha ([5]; Preemergence) | pest or weed control at 125 g/ha ([6]; 125 g ai/ha Preemergence) | pest or weed control at 125 g/ha ([8]; 125 g ai/ha) | pest or weed control at 62 g/ha [8] | pest or weed control at 62 g/ha [10, 21] | pest or weed control at 125 g/ha [10, 22] | pest or weed control at 16 g/ha [10, 23] | pest or weed control at 31 g/ha [10, 24] | pest or weed control at 125 g/ha [10, 26] | pest or weed control at 62 g/ha ([10]; pre-emergence, Preemergence) | pest or weed control at 16 g/ha ([17]; 16 g ai/ha) | pest or weed control at 31 g/ha ([17]; 31 g ai/ha) | pest or weed control at 125 g/ha ([17]; 125 g ai/ha) | pest or weed control at 62 g/ha [17]
5%: pest or weed control at 16 g/ha ([8]; 16 g ai/ha) | pest or weed control at 31 g/ha [13, 24] | pest or weed control at 31 g/ha ([15]; post-emergence, Postemergence)
60%: pest or weed control at 62 g/ha [7, 21] | pest or weed control at 31 g/ha [16, 20]
85%: pest or weed control at 125 g/ha ([5]; 125 g ai/ha Preemergence) | pest or weed control at 62 g/ha ([6]; 62 g ai/ha Preemergence) | pest or weed control at 125 g/ha [16, 22]
20%: pest or weed control at 31 g/ha ([5]; 31 g ai/ha Preemergence) | pest or weed control at 31 g/ha ([15]; pre-emergence, Preemergence)
10%: pest or weed control at 16 g/ha ([3]; 16 g ai/ha Preemergence) | pest or weed control at 31 g/ha ([12]; 31 g ai/ha Preemergence) | pest or weed control at 16 g/ha [13, 19] | pest or weed control at 16 g/ha ([15]; post-emergence, Postemergence) | pest or weed control at 62 g/ha [15, 18]
90%: pest or weed control at 125 g/ha [4, 22] | pest or weed control at 125 g/ha ([15]; pre-emergence, Preemergence)
35%: pest or weed control at 125 g/ha ([12]; 125 g ai/ha Preemergence) | pest or weed control at 62 g/ha [16, 25]
15%: plant injury at 62 g/ha ([9]; pre-emergence, Preemergence) | pest or weed control at 62 g/ha ([12]; Preemergence) | pest or weed control at 125 g/ha ([15]; post-emergence, Postemergence)
75%: pest or weed control at 16 g/ha ([2]; pre-emergence, Preemergence) | pest or weed control at 31 g/ha [4, 20] | pest or weed control at 31 g/ha [11, 20] | pest or weed control at 125 g/ha [13, 26] | pest or weed control at 62 g/ha [16, 21]
70%: pest or weed control at 16 g/ha [4, 19] | pest or weed control at 125 g/ha [7, 22] | pest or weed control at 31 g/ha [7, 24] | pest or weed control at 16 g/ha [11, 19] | pest or weed control at 125 g/ha [13, 22] | pest or weed control at 125 g/ha [16, 26]
0%: pest or weed control at 16 g/ha ([1]; 16 g ai/ha Preemergence) | pest or weed control at 31 g/ha ([1]; 31 g ai/ha Preemergence) | pest or weed control at 125 g/ha ([1]; 125 g ai/ha Preemergence) | pest or weed control at 62 g/ha ([1]; Preemergence) | pest or weed control at 16 g/ha [4, 23] | pest or weed control at 16 g/ha ([5]; 16 g ai/ha Preemergence) | pest or weed control at 16 g/ha ([6]; 16 g ai/ha Preemergence) | pest or weed control at 16 g/ha [7, 23] | plant injury at 16 g/ha [9, 23] | plant injury at 31 g/ha [9, 24] | pest or weed control at 16 g/ha [11, 23] | pest or weed control at 31 g/ha [11, 24] | pest or weed control at 16 g/ha ([12]; 16 g ai/ha Preemergence) | pest or weed control at 16 g/ha [13, 23] | pest or weed control at 16 g/ha ([14]; 16 g ai/ha Preemergence) | pest or weed control at 31 g/ha ([14]; 31 g ai/ha Preemergence) | pest or weed control at 62 g/ha ([14]; Preemergence) | pest or weed control at 16 g/ha [16, 23] | pest or weed control at 31 g/ha [16, 24]
40%: pest or weed control at 31 g/ha ([8]; 31 g ai/ha) | plant injury at 125 g/ha [9, 26] | pest or weed control at 62 g/ha ([15]; pre-emergence, Preemergence)
98%: pest or weed control at 16 g/ha ([2]; post-emergence, Postemergence) | pest or weed control at 31 g/ha ([2]; pre-emergence, Preemergence) | pest or weed control at 62 g/ha ([3]; 62 g ai/ha Preemergence) | pest or weed control at 31 g/ha [10, 20]
95%: pest or weed control at 62 g/ha [2, 18] | pest or weed control at 31 g/ha ([3]; 31 g ai/ha Preemergence) | pest or weed control at 125 g/ha [4, 26] | plant injury at 16 g/ha [9, 19] | plant injury at 31 g/ha [9, 20] | plant injury at 62 g/ha [9, 21] | plant injury at 125 g/ha [9, 22] | pest or weed control at 16 g/ha [10, 19]
80%: pest or weed control at 62 g/ha [4, 21] | pest or weed control at 125 g/ha [7, 26] | pest or weed control at 62 g/ha [11, 21] | pest or weed control at 125 g/ha [11, 22]
25%: pest or weed control at 31 g/ha [13, 20] | pest or weed control at 125 g/ha ([14]; 125 g ai/ha Preemergence) | pest or weed control at 16 g/ha ([15]; pre-emergence, Preemergence)
